For one series, the target named is Human PDE9A (Homo sapiens (Human), UniProt O76083). The conditions noted are these: concentrations of up to 100 μM; cited from earlier work.
The next series deals with Murine PDE9A (Mus musculus (Mouse), UniProt O70628). The conditions noted are these: concentrations below 200 μM; cited from earlier work.
A further series has as its target PDE3B (Homo sapiens (Human), UniProt Q13370). The experiment in a line: PDE inhibition, recombinant PDE3B (SPA). It counts as biochemical. The conditions noted are these: Isoenzyme PDE3B. The source says:
(§1) Recombinant PDE1C (GenBank/EMBL Accession Number: NM_005020, Loughney et al. J. Biol. Chem. 1996 271, 796-806), PDE2A (GenBank/EMBL Accession Number: NM_002599, Rosman et al. Gene 1997 191, 89-95), PDE3B (GenBank/EMBL Accession Number: NM_000922, Miki et al. Genomics 1996, 36, 476-485), PDE4B (GenBank/EMBL Accession Number: NM_002600, Obernolte et al. Gene. 1993, 129, 239-247), PDE5A (GenBank/EMBL Accession Number: NM_001083, Loughney et al. Gene 1998, 216, 139-147), PDE7B (GenBank/EMBL Accession Number: NM_018945, Hetman et al. Proc. Natl. Acad. Sci. U.S.A. 2000, 97, 472-476), PDE8A (GenBank/EMBL Accession Number: AF—056490, Fisher et al. Biochem. Biophys. Res. Commun. […]
(§2) The test substances are dissolved in 100% DMSO and serially diluted to determine their in vitro effect on PDE 9A. […] The plates are then measured for 30 s per well in a Microbeta scintillation counter (Wallac Inc., Atlanta, Ga.). IC50 values are determined from the graphical plot of the substance concentration versus the percentage inhibition.
(§3) The in vitro effect of test substances on recombinant PDE3B, PDE4B, PDE7B, PDE8A, PDE10A and PDE11A is determined in accordance with the assay protocol described above for PDE9A with the following adaptations: [5′,8-^3H] adenosine 3′,5′-cyclic phosphate (1 μCi/μL; Amersham Pharmacia Biotech., Piscataway, N.J.) is used as substrate. […]

Series [1] has as its system primary rat (E18) cortex cultures, intracellular cGMP. As to the kind of experiment: Increasing the intracellular neuronal cGMP concentration in cell cultures. The series is classed as cell-based. Conditions: primary rat cortical neurons, incubation 20 min, FIG. 1. Here is the method: Rat embryos (embryonic day E17-E19) were decapitated, and the heads were transferred into dissection dishes filled with dissection medium (DMEM, penicillin/streptomycin; both from Gibco). The scalp and the roof of the skull were removed, and the exposed brains were transferred into another Petri dish with dissection medium. Using a binocular microscope and two forceps, the cerebrum (cortex) was isolated and cooled to 4° C. with ice. This dissection and the isolation of the cortical neurons were then carried out in accordance with a standard protocol using the Papain kit (Worthington Biochemical Corporation, Lakewood, N.J. 08701, USA) (Huettner et al. J. Neurosci. 1986, 6, 3044-3060). The mechanically isolated cortical neurons were cultivated at 150,000 cells/well in 200 μl of neurobasal medium/well (neurobasal; B27 supplement; 2 mM L-glutamine; in the presence of penicillin/streptomycin; all agents from Gibco) in 96-well plates (pretreated with poly-D-lysine/100 μg/ml for 30 min) under standard conditions (37° C., 5% CO2) for 7 days. After 7 days, the medium was removed and the cells were washed with HBSS buffer (Hank's balanced salt solution, Gibco/BRL). […] Subsequently, the cells were lyzed in 200 μl of lysis buffer (cGMP kit code RPN 226; from Amersham Pharmacia Biotech.), and the cGMP concentration was measured as stated by the manufacturer. […]

Another series has as its target PDE8A (Homo sapiens, UniProt O60658). As to the kind of experiment: PDE inhibition, recombinant PDE8A (SPA). It counts as biochemical. Conditions: Isoenzyme PDE8A.
Series [2] deals with rat hippocampus slices, fEPSP after weak tetanus. The experiment in a line: Long-term potentiation in hippocampus slices. The conditions noted are these: 10 μM, flushed in 10 minutes before to 30 minutes after weak tetanus, vs 0.01% DMSO control, FIG. 2.
In the next series the target is PDE4B (Homo sapiens (Human), UniProt Q07343). The experiment in a line: PDE inhibition, recombinant PDE4B (SPA). It counts as biochemical. Conditions: Isoenzyme PDE4B.
Chain of PDE4B (Q07343 other isoform, or with tags, fused parts or gaps isoform Q07343-2): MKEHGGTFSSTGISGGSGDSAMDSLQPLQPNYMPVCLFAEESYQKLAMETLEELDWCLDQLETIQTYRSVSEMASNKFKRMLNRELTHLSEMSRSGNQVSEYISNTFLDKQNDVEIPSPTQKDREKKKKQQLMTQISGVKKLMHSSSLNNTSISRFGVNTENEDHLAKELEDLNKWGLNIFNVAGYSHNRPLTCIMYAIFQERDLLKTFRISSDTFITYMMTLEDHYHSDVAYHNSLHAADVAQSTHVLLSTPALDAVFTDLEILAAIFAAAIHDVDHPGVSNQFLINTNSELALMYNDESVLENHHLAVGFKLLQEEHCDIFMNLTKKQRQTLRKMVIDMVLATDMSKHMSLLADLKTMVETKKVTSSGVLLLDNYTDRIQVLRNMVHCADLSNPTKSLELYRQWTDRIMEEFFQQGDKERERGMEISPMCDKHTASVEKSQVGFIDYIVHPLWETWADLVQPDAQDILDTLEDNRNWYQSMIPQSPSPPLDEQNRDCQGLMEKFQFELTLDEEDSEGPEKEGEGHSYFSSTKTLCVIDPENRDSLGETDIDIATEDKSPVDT
In a further series the target is PDE7B (Homo sapiens (Human), UniProt Q9NP56). The experiment in a line: PDE inhibition, recombinant PDE7B (SPA). It counts as biochemical. The conditions noted are these: Isoenzyme PDE7B.
Chain of PDE7B (Q9NP56 whole entry): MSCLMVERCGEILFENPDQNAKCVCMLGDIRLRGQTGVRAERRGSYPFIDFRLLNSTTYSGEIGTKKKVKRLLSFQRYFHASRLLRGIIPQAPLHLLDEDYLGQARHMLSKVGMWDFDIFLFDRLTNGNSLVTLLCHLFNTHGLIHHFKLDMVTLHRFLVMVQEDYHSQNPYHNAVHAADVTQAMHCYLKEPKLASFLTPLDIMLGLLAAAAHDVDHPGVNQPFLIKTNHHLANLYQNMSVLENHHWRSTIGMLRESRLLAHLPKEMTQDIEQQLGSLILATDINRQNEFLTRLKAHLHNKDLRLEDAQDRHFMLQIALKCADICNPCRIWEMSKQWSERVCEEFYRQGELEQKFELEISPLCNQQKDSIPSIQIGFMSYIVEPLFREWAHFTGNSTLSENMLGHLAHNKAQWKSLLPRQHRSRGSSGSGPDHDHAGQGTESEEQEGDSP
Excerpt: as §1, §2, §3

Series [3] deals with rats, learning and memory. As to the kind of experiment: Social recognition test. The series is classed as in vivo, rat. The conditions noted are these: intraperitoneal 0.1-3.0 mg/kg directly after trial 1, retention time 24 hours, FIG. 3. Here is the method:
Adult rats housed in groups were placed singly in test cages 30 min before the start of the test. Four minutes before the start of the test, the test animal was put in an observation box. After this adaptation time, a juvenile animal was put in with the test animal and the absolute time for which the adult animal inspected the young one was measured for 2 min (trial 1). All behaviors clearly directed at the young animal were measured, i.e. anogenital inspection, pursuit and grooming, during which the old animal was no further than 1 cm from the young animal. The juvenile was then removed, and the adult was treated with Example 2 or vehicle and subsequently returned to its own cage. The test was repeated after a retention time of 24 hours (trial 2). A diminished social interaction time compared with trial 1 would indicate that the adult rat remembers the young animal.
The adult animals received intraperitoneal injections directly following trial 1 either with vehicle (10% ethanol, 20% Solutol, 70% physiological saline) or 0.1 mg/kg, 0.3 mg/kg, 1.0 mg/kg or 3.0 mg/kg of Example 2 dissolved in 10% ethanol, 20% Solutol, 70% physiological saline. […] They had consequently forgotten that they had already had contact with the young animal.

In another series the target is PDE10A (Homo sapiens (Human), UniProt Q9Y233). The experiment in a line: PDE inhibition, recombinant PDE10A (SPA). The series is classed as biochemical. Conditions: Isoenzyme PDE10A.
Chain of PDE10A (Q9Y233 other isoform, or with tags, fused parts or gaps): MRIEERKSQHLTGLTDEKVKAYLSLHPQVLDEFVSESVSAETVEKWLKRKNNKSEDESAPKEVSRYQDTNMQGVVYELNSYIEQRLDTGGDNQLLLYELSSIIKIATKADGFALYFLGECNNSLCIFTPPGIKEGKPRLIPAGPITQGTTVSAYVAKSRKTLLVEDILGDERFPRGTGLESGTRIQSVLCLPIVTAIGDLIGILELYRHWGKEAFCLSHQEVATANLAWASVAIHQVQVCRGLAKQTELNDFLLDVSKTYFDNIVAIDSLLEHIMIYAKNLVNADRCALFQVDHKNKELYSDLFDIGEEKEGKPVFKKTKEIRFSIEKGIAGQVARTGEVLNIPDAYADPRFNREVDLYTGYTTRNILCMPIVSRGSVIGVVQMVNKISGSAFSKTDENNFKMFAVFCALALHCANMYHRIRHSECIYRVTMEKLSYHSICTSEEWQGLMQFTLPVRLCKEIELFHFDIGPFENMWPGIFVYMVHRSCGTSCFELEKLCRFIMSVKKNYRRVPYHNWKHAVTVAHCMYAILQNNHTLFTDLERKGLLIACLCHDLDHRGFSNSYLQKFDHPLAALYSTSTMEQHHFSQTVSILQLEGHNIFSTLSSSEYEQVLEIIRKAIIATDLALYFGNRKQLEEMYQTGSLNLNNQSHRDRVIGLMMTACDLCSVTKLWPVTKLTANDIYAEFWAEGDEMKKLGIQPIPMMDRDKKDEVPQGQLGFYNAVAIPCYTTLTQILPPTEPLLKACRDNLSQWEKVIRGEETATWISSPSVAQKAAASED
Excerpt: as §1, §2, §3

The next series addresses PDE2A (Homo sapiens (Human), UniProt O00408). As to the kind of experiment: PDE inhibition, recombinant PDE2A (SPA). The conditions noted are these: Isoenzyme PDE2A. The series is classed as biochemical.
Excerpt: as §1, §2, §3

Another series concerns the target PDE5A (Homo sapiens (Human), UniProt O76074). As to the kind of experiment: PDE inhibition, recombinant PDE5A (SPA). The conditions noted are these: Isoenzyme PDE5A. It counts as biochemical.
Excerpt: as §1, §2, §3

Another series addresses PDE11 (Homo sapiens (Human), UniProt Q9HCR9). The experiment in a line: PDE inhibition, recombinant PDE11A (SPA). It counts as biochemical. Conditions: Isoenzyme PDE11, human.
Excerpt: as §1, §2, §3

Here are results for seven compounds from US9067945B2, “Selective phosphodiesterase 9A inhibitors as medicaments for improving cognitive processes” (Boehringer Ingehleim International GmbH, priority 2002, dated 2015).

Each structure is given as a SMILES string. “Also recorded” adds a separate entry of the source.

Chain of Human PDE9A (O76083 whole entry): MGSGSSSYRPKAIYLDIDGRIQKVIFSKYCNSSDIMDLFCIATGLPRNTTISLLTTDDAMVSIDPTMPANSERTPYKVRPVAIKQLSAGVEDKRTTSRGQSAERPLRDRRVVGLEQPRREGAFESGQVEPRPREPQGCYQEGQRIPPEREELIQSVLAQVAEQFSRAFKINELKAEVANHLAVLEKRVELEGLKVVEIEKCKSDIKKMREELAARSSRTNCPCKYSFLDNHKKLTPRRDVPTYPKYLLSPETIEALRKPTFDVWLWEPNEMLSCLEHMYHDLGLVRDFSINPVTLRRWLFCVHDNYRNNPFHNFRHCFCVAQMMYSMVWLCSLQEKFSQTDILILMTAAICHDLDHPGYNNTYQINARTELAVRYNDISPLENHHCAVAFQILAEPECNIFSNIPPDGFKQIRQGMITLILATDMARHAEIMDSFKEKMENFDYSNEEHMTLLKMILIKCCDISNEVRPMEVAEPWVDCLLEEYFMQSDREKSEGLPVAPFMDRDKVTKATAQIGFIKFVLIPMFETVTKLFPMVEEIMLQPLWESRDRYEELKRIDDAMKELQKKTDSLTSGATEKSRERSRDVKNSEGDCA
Chain of PDE11 (Q9HCR9 445-933, change not shown): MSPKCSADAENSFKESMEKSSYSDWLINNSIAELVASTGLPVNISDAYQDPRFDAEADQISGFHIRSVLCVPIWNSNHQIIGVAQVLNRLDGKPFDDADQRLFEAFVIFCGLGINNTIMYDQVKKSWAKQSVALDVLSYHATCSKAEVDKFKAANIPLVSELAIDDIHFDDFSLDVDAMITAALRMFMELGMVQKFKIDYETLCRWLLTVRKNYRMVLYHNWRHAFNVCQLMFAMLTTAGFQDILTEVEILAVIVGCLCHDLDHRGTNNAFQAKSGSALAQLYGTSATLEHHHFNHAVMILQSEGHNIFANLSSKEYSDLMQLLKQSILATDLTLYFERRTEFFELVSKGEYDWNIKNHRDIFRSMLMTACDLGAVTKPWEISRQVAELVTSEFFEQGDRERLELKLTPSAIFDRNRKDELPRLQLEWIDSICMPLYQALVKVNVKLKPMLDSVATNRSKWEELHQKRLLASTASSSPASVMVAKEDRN
Chain of Murine PDE9A (O70628 whole entry): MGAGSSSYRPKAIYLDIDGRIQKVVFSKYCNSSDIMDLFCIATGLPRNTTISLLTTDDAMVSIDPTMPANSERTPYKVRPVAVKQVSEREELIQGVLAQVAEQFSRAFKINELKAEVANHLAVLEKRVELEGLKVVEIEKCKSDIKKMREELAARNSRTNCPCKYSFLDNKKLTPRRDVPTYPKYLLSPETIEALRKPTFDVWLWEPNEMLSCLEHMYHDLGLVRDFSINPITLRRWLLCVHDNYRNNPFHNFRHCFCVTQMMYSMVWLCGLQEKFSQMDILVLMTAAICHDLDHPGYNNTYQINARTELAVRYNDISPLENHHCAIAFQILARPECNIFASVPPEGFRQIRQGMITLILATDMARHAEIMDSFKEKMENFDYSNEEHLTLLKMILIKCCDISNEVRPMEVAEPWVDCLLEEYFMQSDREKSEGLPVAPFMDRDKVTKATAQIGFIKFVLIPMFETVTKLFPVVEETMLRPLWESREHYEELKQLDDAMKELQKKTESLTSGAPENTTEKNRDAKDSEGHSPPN
Chain of PDE3B (Q13370 whole entry): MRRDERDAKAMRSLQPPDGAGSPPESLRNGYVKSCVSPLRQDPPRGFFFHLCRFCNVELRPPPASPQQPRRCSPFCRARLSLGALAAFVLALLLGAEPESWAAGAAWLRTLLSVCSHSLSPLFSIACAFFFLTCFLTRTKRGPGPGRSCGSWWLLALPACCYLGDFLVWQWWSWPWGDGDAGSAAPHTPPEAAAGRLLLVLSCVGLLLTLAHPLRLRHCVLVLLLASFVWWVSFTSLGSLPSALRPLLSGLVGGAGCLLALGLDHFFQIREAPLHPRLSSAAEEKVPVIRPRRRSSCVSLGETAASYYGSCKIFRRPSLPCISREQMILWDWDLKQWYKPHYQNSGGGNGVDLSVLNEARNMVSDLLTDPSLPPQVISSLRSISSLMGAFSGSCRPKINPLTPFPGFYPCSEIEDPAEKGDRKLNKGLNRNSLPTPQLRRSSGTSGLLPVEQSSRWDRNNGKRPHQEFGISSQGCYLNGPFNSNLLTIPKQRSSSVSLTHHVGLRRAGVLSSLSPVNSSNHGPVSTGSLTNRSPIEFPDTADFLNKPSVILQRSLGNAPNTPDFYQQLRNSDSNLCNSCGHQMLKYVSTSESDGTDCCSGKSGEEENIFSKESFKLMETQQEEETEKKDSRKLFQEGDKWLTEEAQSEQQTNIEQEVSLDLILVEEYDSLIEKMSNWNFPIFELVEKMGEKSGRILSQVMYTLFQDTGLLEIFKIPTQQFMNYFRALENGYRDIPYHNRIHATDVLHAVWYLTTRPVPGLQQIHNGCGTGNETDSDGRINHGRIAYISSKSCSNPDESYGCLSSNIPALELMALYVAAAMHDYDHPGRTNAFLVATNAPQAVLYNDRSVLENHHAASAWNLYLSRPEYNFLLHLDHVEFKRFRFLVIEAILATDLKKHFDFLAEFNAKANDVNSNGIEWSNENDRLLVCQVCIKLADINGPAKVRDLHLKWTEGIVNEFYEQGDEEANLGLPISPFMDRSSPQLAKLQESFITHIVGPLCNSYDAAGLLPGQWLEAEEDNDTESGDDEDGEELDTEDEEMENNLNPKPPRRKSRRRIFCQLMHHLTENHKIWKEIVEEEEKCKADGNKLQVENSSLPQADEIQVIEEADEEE

In the case of `OCCN(CCO)c1nc(N2CCCCC2)c2nc(N(CCO)CCO)nc(N3CCCCC3)c2n1` [dipyridamole], on Human PDE9A, the “inhibition on the isolated enzyme” value was “no inhibition”.
In the case of `CC(=O)Nc1ccc(-c2c[nH]c(=O)cn2)cc1` [SKF94120], on Human PDE9A, the “inhibition on the isolated enzyme” value was “no inhibition”.
`COc1ccc(C2CNC(=O)C2)cc1OC1CCCC1` (stereo not shown) [rolipram]: the “inhibition on the isolated enzyme” value at Human PDE9A is listed as “no inhibition”.
Turning to `CC(C)Cn1c(=O)n(C)c(=O)c2[nH]cnc21` [IBMX], the “inhibition of murine PDE9A” value on Murine PDE9A was “not inhibited”. For the same compound, the “inhibition on the isolated enzyme” value at Human PDE9A is on record as “no inhibition”.
For `O=c1[nH]c(CC2CCCCC2)nc2c1cnn2C1CCCC1`, the melting point came out at 147 °C.
As for `CCOC(=O)C1=C[C@]2(CC)CCCN3CCc4c(n1c1ccccc41)[C@@H]32` [vinpocetine], the “inhibition on the isolated enzyme” value at Human PDE9A is recorded as “no inhibition”.
Take `CCC(CC)n1ncc2c(=O)[nH]c(CC3CCCCC3)nc21` [Example 2, 6-(Cyclohexylmethyl)-1-(1-ethylpropyl)-1,5-dihydro-4H-pyrazolo[3,4-d]-pyrimidin-4-one]: the melting point was found to be 122 °C. The IC50 on PDE3B is more than 4 µM. Moreover, the “cGMP content of primary neurons” value in series [1] is “increase in the cGMP content”. In addition, the half-maximal inhibitory concentration (IC50) at PDE8A is more than 4 µM. In addition, the “LTP / potentiation of fEPSP after weak tetanus” value in series [2] was “significant increase in the LTP; also recorded: significantly augmented the increase in the fEPSP”. Also, on PDE4B, the IC50 is more than 4 µM. The 50% inhibitory concentration (IC50) on PDE7B is more than 4 µM. Besides, the “social interaction time in trial 2 compared with vehicle” value in [3] is given as “significantly reduced”. Also, on PDE10A, the IC50 was more than 4 µM. Besides, the IC50 at PDE2A was more than 4 µM. In addition, the IC50 at PDE5A was more than 4 µM. For the same compound, on PDE11, the half-maximal inhibitory concentration (IC50) was more than 4 µM.
